Values belong to the compound of their own block, whether it stands above or below them. Activity calls are given as the source filed them.
Tests used:
[1] = HEK-293T cell viability reduction – luminescence, B-cell screen hits, cytotoxicity control for BCR NF-kB inhibitor project, dose response (AID 489021); assay type: functional, cell-based;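 also: HEK-293T cells carrying an NF-kB luciferase reporter; cells exposed to compound for about 14 hours before viability readout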
[2] = target: T1, Histone-lysine N-methyltransferase NSD2 (Homo sapiens, UniProt O96028); assay type: biochemical
T1 sequence (O96028 whole entry): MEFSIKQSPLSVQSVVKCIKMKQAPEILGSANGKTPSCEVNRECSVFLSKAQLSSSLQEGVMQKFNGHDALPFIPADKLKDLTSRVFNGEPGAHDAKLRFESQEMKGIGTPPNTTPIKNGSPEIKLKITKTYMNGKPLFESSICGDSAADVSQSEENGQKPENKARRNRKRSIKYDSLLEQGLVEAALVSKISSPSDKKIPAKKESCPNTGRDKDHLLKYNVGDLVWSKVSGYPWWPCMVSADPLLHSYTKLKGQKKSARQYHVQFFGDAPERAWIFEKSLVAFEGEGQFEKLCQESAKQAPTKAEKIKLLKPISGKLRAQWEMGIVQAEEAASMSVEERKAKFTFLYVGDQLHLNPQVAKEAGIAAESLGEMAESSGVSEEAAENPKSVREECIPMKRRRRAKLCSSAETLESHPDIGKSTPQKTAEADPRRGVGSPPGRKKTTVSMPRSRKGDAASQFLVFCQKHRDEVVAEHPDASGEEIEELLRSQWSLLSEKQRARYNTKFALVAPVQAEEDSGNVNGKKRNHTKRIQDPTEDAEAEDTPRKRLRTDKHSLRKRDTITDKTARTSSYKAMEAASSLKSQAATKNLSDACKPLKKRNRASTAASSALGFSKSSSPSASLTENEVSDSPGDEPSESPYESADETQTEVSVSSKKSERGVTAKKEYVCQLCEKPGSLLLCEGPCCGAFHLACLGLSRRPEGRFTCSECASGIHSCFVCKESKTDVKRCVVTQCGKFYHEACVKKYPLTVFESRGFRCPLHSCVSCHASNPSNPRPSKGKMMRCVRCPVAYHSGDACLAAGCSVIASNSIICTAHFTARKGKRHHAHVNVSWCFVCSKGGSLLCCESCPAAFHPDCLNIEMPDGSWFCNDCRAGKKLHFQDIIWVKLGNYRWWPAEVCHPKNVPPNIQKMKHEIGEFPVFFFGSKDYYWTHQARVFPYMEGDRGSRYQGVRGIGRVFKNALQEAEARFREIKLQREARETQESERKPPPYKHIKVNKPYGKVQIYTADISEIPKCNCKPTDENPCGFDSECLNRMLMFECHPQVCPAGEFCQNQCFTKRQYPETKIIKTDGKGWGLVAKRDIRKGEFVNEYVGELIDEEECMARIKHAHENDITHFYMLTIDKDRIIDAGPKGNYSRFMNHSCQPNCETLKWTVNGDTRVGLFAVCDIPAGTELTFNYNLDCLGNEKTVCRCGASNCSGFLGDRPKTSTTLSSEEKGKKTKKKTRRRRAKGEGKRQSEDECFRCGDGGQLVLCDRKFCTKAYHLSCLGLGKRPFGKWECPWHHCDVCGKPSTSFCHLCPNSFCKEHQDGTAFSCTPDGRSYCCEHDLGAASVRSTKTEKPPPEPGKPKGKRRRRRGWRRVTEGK

Caspase-3 = target: T2, Caspase-3 (Homo sapiens, UniProt P42574); test: activators of human procaspase-3 D3A mutant – biochemical, absorbance, PC-3 D3A mutant, counter-screen for dual procaspase-3/7 activator project, dose response (AID 504328)
T2 sequence (P42574 whole entry): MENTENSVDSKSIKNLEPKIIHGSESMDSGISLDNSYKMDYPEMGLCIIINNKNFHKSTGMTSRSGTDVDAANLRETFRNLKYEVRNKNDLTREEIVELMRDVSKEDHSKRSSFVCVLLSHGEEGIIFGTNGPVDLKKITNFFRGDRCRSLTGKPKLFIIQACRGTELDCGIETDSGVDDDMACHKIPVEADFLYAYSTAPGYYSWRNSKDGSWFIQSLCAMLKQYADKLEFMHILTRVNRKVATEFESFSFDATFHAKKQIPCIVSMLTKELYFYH

Caspase-7 = Caspase-7 (Homo sapiens, UniProt P55210); test: potency of procaspase-7 enzyme activation – biochemical, absorbance, human, dual procaspase-3/-7 activator project, dose response (AID 504330)
[3] = target: Luciferin 4-monooxygenase (Photinus pyralis, UniProt P08659); test: inhibition of purified Photinus pyralis luciferase – biochemical, luminescence, dose response (AID 1891)
[4] = Luminescence Cell-Based Dose Confirmation HTS to Identify Inhibitors of Platelet Dense Granule Release. [Related pubchem assays: 1663 (Primary HTS), 1678 (Summary of Project)]; assay type: functional
[5] = ADP-Glo luciferase signal interference – biochemical, luminescence, cherry-picked samples, set 2, artefact control for CDK5 inhibitor project, dose response (AID 504546); assay type: functional, cell-based
[6] = target: Cyclin-dependent kinase 5/CDK5 activator 1 (Homo sapiens, UniProt Q00535); test: blockade of human CDK5 activity – biochemical, cherry-picked samples, set 2, dose response (AID 504545)
[7] = target: Serine/threonine-protein phosphatase PP1-alpha catalytic subunit (Homo sapiens, UniProt P62136); test: inhibition of protein phosphatase 1 activity – biochemical, fluorescence, dose response (AID 2403);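 also: phosphatase turnover of OMFP into fluorescent 3-O-methylfluorescein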
[8] = target: T3, Serine/threonine-protein phosphatase (Homo sapiens, UniProt Q9BPW0); test: Counterscreen for inhibitors of PP1: fluorescence-based biochemical high throughput dose response assay to identify inhibitors of Protein Phosphatase 5 (PP5). [Related pubchem assays: 2034 (Summary (PP5 inhibitors)), 1987 (PP5 inhibitors in singlate), 2235 (PP1 inhibitors in singlate)]
T3 sequence (Q9BPW0 whole entry): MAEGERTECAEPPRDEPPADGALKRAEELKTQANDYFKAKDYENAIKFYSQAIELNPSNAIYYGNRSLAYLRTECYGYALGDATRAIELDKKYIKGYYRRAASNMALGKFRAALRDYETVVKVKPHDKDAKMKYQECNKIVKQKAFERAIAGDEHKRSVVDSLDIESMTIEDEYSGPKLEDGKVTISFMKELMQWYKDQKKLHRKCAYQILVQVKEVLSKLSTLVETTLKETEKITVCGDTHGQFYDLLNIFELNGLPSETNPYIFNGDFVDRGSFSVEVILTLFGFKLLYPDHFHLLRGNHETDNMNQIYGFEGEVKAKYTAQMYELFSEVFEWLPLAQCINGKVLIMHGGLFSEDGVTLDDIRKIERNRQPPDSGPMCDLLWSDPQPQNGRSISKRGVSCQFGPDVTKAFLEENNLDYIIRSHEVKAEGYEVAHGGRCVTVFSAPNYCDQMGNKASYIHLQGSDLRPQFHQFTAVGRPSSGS

[9] = target: Peroxisome proliferator-activated receptor gamma/Nuclear receptor corepressor 2 (Homo sapiens, UniProt P37231+Q9Y618); test: Counterscreen for NR2E3 inverse agonists: TR-FRET-based biochemical high throughput dose response assay to identify inverse agonists of the interaction between peroxisome proliferator-activated receptor gamma (PPARg) and nuclear receptor co-repressor 2 (NCOR2).; assay type: functional
[10] = target: Photoreceptor-specific nuclear receptor (Homo sapiens, UniProt Q9Y5X4); test: ligands suppressing NR2E3 nuclear receptor activity – biochemical, TR-FRET, dose response (AID 463256); assay type: functional
[11] = target: Eukaryotic translation initiation factor 4E (Mus musculus, UniProt P63073); test: blockers of eIF4G binding by eIF4E – biochemical, TR-FRET, dose response (AID 855); assay type: functional;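 also: potency for disrupting eIF4E binding to eIF4GI seen as loss of FRET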
Hexokinase HKDC1 = Hexokinase HKDC1 (Homo sapiens, UniProt Q2TB90); test: inhibition of HKDC1 glucose phosphorylation – biochemical, W721R variant, dose response (AID 504729); assay type: functional
[12] = target: Dual specificity protein phosphatase 3 (Homo sapiens, UniProt P51452); test: inhibition constants for human DUSP3 – biochemical, colorimetric, SAR follow-up (AID 2004)
Dual specificity protein phosphatase 3, sequence (P51452 whole entry): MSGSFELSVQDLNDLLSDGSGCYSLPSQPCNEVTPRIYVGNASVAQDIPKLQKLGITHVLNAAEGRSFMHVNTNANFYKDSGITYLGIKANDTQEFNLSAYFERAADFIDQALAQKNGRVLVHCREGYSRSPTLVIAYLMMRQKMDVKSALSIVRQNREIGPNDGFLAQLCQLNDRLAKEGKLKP

Luciferin 4-monooxygenase, sequence (P08659 whole entry): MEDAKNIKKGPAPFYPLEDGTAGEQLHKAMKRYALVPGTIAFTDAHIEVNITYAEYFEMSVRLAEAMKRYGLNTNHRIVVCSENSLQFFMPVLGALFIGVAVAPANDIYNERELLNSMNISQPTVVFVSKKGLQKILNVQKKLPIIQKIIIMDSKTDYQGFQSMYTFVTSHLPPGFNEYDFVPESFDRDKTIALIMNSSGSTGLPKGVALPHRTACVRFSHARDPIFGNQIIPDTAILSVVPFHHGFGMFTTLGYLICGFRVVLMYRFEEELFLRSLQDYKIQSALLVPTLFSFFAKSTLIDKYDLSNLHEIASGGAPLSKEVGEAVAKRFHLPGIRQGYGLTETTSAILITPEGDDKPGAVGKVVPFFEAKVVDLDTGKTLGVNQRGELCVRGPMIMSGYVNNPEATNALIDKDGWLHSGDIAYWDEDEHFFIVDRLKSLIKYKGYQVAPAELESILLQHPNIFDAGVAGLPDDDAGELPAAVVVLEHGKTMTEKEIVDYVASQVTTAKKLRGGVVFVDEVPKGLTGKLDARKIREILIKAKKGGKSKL
Cyclin-dependent kinase 5/CDK5 activator 1, sequence (Q00535 whole entry): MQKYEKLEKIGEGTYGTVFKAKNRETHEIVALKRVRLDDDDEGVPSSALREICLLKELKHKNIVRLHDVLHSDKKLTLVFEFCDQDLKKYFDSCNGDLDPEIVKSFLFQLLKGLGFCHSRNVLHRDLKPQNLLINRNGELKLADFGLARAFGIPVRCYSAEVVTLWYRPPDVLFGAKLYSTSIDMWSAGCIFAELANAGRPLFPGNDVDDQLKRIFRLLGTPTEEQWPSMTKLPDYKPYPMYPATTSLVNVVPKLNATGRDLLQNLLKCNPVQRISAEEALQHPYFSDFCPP
Cyclin-dependent kinase 5/CDK5 activator 1, sequence (Q15078 whole entry, further chain): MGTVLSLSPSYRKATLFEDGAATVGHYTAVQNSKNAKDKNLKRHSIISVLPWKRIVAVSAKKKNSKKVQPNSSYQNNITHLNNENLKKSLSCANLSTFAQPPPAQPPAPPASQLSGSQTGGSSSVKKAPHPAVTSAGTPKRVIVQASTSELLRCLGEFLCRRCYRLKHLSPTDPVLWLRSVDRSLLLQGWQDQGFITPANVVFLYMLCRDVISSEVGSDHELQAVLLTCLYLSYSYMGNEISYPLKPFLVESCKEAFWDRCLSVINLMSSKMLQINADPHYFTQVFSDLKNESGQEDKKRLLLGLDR
Peroxisome proliferator-activated receptor gamma/Nuclear receptor corepressor 2, sequence (P37231 whole entry): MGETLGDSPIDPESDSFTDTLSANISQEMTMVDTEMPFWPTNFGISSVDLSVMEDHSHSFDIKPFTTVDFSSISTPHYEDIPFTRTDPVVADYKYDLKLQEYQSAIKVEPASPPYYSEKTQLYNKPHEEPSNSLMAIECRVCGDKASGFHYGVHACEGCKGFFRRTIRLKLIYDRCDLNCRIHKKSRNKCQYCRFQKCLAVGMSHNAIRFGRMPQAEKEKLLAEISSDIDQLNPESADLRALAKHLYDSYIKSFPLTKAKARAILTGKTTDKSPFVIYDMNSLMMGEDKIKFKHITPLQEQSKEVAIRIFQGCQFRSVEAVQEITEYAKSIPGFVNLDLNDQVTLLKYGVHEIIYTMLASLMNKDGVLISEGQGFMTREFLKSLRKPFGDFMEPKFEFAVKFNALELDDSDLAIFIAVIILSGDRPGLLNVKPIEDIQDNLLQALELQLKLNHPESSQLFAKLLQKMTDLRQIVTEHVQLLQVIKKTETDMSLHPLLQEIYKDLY
Peroxisome proliferator-activated receptor gamma/Nuclear receptor corepressor 2, sequence (Q9Y618 whole entry): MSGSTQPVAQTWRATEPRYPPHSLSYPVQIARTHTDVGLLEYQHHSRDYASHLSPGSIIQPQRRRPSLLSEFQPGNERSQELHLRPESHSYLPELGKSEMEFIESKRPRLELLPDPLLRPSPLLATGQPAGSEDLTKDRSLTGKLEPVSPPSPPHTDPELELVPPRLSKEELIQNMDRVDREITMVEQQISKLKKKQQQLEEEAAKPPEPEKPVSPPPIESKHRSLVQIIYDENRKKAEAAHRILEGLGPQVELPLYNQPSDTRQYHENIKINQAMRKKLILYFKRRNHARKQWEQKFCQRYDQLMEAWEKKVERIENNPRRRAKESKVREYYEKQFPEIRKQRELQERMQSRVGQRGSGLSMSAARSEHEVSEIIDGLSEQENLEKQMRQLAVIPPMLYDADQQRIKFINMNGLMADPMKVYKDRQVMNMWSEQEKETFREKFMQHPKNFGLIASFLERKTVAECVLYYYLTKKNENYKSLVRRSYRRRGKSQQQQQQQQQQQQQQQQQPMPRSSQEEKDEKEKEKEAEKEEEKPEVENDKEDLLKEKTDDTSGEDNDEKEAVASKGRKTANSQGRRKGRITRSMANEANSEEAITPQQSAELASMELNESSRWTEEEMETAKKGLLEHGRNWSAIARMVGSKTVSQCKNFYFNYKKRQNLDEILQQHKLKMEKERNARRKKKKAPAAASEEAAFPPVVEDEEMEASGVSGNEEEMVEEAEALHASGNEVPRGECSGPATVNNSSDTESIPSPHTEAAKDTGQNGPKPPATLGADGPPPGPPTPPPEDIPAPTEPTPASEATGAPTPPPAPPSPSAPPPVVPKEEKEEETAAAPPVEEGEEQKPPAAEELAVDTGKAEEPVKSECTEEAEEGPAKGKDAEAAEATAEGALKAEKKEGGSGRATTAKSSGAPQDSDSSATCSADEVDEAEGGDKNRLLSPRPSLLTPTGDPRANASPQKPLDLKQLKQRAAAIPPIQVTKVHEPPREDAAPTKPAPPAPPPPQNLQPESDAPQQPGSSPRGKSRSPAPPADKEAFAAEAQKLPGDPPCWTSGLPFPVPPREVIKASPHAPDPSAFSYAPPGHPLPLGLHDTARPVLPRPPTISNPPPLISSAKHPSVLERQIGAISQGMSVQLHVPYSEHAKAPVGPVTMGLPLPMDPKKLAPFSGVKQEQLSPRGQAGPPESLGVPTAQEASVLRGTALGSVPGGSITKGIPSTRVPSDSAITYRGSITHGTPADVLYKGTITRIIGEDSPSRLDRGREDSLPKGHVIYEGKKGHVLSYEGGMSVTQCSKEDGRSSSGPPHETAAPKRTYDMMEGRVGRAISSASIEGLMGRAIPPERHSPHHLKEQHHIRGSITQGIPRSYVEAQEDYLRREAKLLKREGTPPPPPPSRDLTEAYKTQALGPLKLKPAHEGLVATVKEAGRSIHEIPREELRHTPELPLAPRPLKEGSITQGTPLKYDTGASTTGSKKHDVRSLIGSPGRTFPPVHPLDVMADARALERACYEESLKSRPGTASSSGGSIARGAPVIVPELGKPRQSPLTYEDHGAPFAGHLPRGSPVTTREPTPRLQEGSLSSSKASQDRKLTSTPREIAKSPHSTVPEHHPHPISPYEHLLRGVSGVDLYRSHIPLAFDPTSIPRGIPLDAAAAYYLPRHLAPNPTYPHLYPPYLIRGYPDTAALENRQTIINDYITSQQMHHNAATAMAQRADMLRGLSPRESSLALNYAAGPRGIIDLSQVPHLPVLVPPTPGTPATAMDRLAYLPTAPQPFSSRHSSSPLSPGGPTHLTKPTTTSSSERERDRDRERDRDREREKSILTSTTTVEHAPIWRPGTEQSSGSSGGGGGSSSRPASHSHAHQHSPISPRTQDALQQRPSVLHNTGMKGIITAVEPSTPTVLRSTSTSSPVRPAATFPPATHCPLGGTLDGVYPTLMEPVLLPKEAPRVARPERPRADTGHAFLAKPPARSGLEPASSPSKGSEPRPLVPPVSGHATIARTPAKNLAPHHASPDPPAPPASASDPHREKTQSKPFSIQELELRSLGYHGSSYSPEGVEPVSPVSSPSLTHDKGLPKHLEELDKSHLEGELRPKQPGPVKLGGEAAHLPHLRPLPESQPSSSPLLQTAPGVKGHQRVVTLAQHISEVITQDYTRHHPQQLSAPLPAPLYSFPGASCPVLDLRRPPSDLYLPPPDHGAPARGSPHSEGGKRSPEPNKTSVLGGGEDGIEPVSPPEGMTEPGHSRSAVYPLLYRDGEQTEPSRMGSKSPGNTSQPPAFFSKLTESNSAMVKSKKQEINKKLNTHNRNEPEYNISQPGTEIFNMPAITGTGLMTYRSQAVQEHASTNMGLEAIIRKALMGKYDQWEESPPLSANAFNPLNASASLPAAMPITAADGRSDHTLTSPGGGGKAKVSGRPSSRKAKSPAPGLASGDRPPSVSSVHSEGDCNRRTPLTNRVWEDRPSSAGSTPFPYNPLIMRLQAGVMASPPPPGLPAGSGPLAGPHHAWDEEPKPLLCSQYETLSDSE
Serine/threonine-protein phosphatase PP1-alpha catalytic subunit, sequence (P62136 whole entry): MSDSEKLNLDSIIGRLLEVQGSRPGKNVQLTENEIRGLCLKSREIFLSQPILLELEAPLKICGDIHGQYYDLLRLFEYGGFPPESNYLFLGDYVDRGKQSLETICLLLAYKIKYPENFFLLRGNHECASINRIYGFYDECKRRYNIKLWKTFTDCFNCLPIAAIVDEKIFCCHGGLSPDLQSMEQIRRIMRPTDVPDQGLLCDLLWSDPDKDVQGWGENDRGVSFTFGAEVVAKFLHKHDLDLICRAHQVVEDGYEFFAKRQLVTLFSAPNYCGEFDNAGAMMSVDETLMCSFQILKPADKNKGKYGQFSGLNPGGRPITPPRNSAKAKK
Eukaryotic translation initiation factor 4E, sequence (P63073 whole entry): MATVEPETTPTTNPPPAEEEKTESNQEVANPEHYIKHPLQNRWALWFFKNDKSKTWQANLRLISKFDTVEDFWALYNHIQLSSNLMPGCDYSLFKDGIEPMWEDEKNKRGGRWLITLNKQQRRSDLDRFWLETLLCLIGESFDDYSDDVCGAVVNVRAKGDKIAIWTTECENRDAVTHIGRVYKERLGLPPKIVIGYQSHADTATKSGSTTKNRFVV

SMILES: CCN(CC)CCC/N=C/c1c(-c2ccccc2)nn(-c2nc3ccccc3s2)c1O
- IC50 [1]: > 80 µM (inactive)
- AC50 [2]: > 20 µM (inactive)

- EC50 (Caspase-3): > 85.3 µM (inactive)
- EC50 (Caspase-7): > 85.3 µM (inactive)
SMILES: COc1ccc(-c2cc(C(=O)OC3CCOC3=O)c3ccccc3n2)cc1 (stereo not given)

SMILES: COc1ccc(C(=O)O/N=C(\C)c2ccccc2)cc1
- EC50 [3]: 637 nM (active)
- EC50 [4]: 3.61 µM (active)
- AC50 [5]: 90.4 µM (active)
- AC50 [6]: 26.1 µM (active)

SMILES: N#Cc1ccc(CSc2nnc(NC(=O)c3ccc4ncsc4c3)s2)cc1
- IC50 [7]: 7.42 µM (active)
- IC50 [8]: > 67 µM (not active)
- IC50 [9]: 3.79 µM (active)
- IC50 [10]: 3.91 µM (active)
- IC50 [11]: 13.1 µM (active)
- IC50 (Hexokinase HKDC1): 10.4 µM (active)

SMILES: O=Cc1ccc(Oc2ncnc3ccccc23)cc1
- Ki [12]: 43.7 µM (inactive)
